pEC50, pIC50: −log10 of the molar value. Read-outs that look alike come from different tables or passages of the source.
Columns and labels:
[1] = target: T1, His-p53 Y220C (94-294) protein (Homo sapiens, UniProt P04637, Y220C); assay: In vitro DNA binding assay (HTRF); type: biochemical; settings: % activation normalized to 2 μM Ref-1a high control
T1 construct: His-p53 Y220C (94-294) protein

[2] = test system: NUGC3 (P53 Y220C); assay: Cell viability assay (CellTiter-Glo, 6 days), NUGC3; type: cell-based; settings: for pIC50: cell viability, 6 days, CellTiter-Glo, read-out: NUGC3 (P53 Y220C) IC50
Method in brief: (§1)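 After a 6-day compound exposure following overnight plating, ATP luminescence (CellTiter-Glo) gave percent viability relative to DMSO-treated cells and cell-free medium controls. IC50 = concentration at 50% viability, from 4-parameter logistic or Excel fit.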

[3] = test system: NUGC4 (P53 WT); assay: Cell viability assay (CellTiter-Glo, 6 days), NUGC4; type: cell-based; settings: for pIC50: cell viability, 6 days, CellTiter-Glo, read-out: NUGC4 (P53 WT) IC50
Method in brief: as §1

[4] = test system: NUGC-3_P53_Luc single clonal cell line (p53 Y220C); assay: Reporter gene assay (p53 RE luciferase); type: cell-based; settings: for pEC50: luciferase reporter, 6 hours, normalized to Ref-1a (10 μM) high control, read-out: p53(Y220C)_NUGC-3 EC50
Method in brief: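 Luminescence normalised to DMSO-only (0%) and 10 μM Ref-1a (100%) wells gives % activity, fitted by 4-parameter logistic or Excel to yield EC50 at 50%. Reporter line: NUGC-3 with p53 response element-luc2P, compound-treated 6 h at 37 °C.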

Structure (SMILES)	pEC50 [1]	pIC50 ([2]; Homo sapiens, NUGC-3, 144 h)	pIC50 ([3]; Homo sapiens, NUGC-4, 144 h)	pEC50 ([4]; Homo sapiens, NUGC-3)	pEC50 ([4]; Homo sapiens, NUGC-3, 6 h)	pIC50 [2]	pIC50 [3]	pEC50 [4]	IC50 ([2]; Homo sapiens, NUGC-3, 144 h, read-out: NUGC3 (P53 Y220C) IC50 (μM)) [µM]	IC50 ([3]; Homo sapiens, NUGC-4, 144 h, read-out: NUGC4 (P53 WT) IC50 (μM)) [µM]	EC50 ([4]; Homo sapiens, NUGC-3, 6 h, read-out: p53(Y220C)_NUGC-3 EC50 (μM)) [µM]
COc1cc(P2(=O)CCN(C(=O)C3CC3)CC2)ccc1NCC#Cc1sc2c(N[C@@H]3CCN(C)C[C@@H]3F)cccc2c1CC(F)(F)F [Example 149, cyclopropyl(4-(4-((3-(7-(((3S,4R)-3-fluoro-1-methylpiperidin-4-yl)amino)-3-(2,2,2-trifluoroethyl)benzo[b]thiophen-2-yl)prop-2-yn-1-yl)amino)-3-methoxyphenyl)-4-oxido-1,4-azaphosphinan-1-yl)methanone]	7.34	6.43	5.43	7.05							
COc1cc(P(C)(C)=O)ccc1NCC#Cc1sc2c(N[C@H]3CCN(C)C[C@@H]3C)cccc2c1CC(F)(F)F [Example 127, (4-((3-(7-(((3S,4S)-1,3-dimethylpiperidin-4-yl)amino)-3-(2,2,2-trifluoroethyl)benzo[b]thiophen-2-yl)prop-2-yn-1-yl)amino)-3-methoxyphenyl)dimethylphosphine oxide]	7.42	6.48	5.65		7.00						
COc1cc(P(C)(C)=O)ccc1NCC#Cc1sc2c(NC3CCN(CC4CC4)C[C@@H]3F)cccc2c1CC(F)(F)F (mixture of isomers) [Example 102, (4-((3-(7-(((Z)-1-(cyclopropylmethyl)-3-fluoropiperidin-4-yl)amino)-3-(2,2,2-trifluoroethyl)benzo[b]thiophen-2-yl)prop-2-yn-1-yl)amino)-3-methoxyphenyl)dimethylphosphine oxide]	7.19	6.09	5.72	6.96							
CN1CCC(Nc2cccc3c(CC(F)(F)F)c(C#CCNc4ccc(P(C)(C)=O)c5c4OCC5)sc23)C(F)C1 (centres unmarked) [Example 152, (7-((3-(7-(((Z)-3-fluoro-1-methylpiperidin-4-yl)amino)-3-(2,2,2-trifluoroethyl)benzo[b]thiophen-2-yl)prop-2-yn-1-yl)amino)-2,3-dihydrobenzofuran-4-yl)dimethylphosphine oxide]	7.72					5.99	5.17	6.92			
CNC(=O)c1cc(OC)c(NCC#Cc2sc3c(NC4CCN(C)CC4F)cccc3c2CC(F)(F)F)cn1 (centres unmarked) [Example 60, 5-((3-(3-(2,2,2-trifluoroethyl)-7-(((Z)-3-fluoro-1-methylpiperidin-4-yl)amino)benzo[b]thiophen-2-yl)prop-2-yn-1-yl)amino)-4-methoxy-N-methylpicolinamide]	7.14					5.71	5.21	6.33			
CN1CCC(Nc2cccc3c(CC(F)(F)F)c(C#CCNc4ccc(P(C)(C)=O)cc4OCF)sc23)C(F)C1 (centres unmarked) [Example 10, (4-((3-(7-(((Z)-3-fluoro-1-methylpiperidin-4-yl)amino)-3-(2,2,2-trifluoroethyl)benzo[b]thiophen-2-yl)prop-2-yn-1-yl)amino)-3-(fluoromethoxy)phenyl)dimethylphosphine oxide]	7.25					5.77	4.68	6.64			
COc1cc(P(C)(C)=O)ccc1NCC#Cc1sc2c(NC3C(C)CN(C)CC3C)cccc2c1CC(F)(F)F (centres unmarked) [Example 131, (3-methoxy-4-((3-(3-(2,2,2-trifluoroethyl)-7-(((Z)-1,3,5-trimethylpiperidin-4-yl)amino)benzo[b]thiophen-2-yl)prop-2-yn-1-yl)amino)phenyl)dimethylphosphine oxide]	7.48	6.18	5.60	7.15							
COc1cc(C(=O)NC2CCN(C)CC2F)ccc1NCC#Cc1sc2c(NC3CCN(C)CC3F)cccc2c1CC(F)(F)F (centres unmarked) [Example 68, N-(3-fluoro-1-methylpiperidin-4-yl)-4-((3-(7-(((Z)-3-fluoro-1-methylpiperidin-4-yl)amino)-3-(2,2,2-trifluoroethyl)benzo[b]thiophen-2-yl)prop-2-yn-1-yl)amino)-3-methoxybenzamide]	7.36					5.97	5.86	6.19			
CN1CC[C@@H](Nc2cccc3c(CC(F)(F)F)c(C#CCNc4ccc(P(C)(C)=O)cc4C(=O)NC4CCOCC4)sc23)[C@@H](F)C1 [Example 216, 5-(dimethylphosphoryl)-2-((3-(7-(((3S,4R)-3-fluoro-1-methylpiperidin-4-yl)amino)-3-(2,2,2-trifluoroethyl)benzo[b]thiophen-2-yl)prop-2-yn-1-yl)amino)-N-(tetrahydro-2H-pyran-4-yl)benzamide]	7.32	6.57	< 4.30	6.92							
CN1CC[C@@H](Nc2cccc3c(CC(F)(F)F)c(C#CCNc4ccc(P(C)(C)=O)cc4OC4CC4)sc23)[C@@H](F)C1 [Example 150, (3-cyclopropoxy-4-((3-(7-(((3S,4R)-3-fluoro-1-methylpiperidin-4-yl)amino)-3-(2,2,2-trifluoroethyl)benzo[b]thiophen-2-yl)prop-2-yn-1-yl)amino)phenyl)dimethylphosphine oxide]	7.46	6.41	5.00	7.10							
COc1cc(P2(=O)CCCC2)ccc1NCC#Cc1sc2c(N[C@@H]3CCN(C)C[C@@H]3F)cccc2c1CC(F)(F)F [Example 117, 1-(4-((3-(7-(((3S,4R)-3-fluoro-1-methylpiperidin-4-yl)amino)-3-(2,2,2-trifluoroethyl)benzo[b]thiophen-2-yl)prop-2-yn-1-yl)amino)-3-methoxyphenyl)phospholane 1-oxide]	7.47								0.93	8.54	0.17
CNC(=O)c1ccc(NCC#Cc2cc3c(N[C@@H]4CCN(C)C[C@@H]4F)cccc3n2CC(F)(F)F)c(OC)c1 [Example 110, 4-((3-(4-(((3S,4R)-3-fluoro-1-methylpiperidin-4-yl)amino)-1-(2,2,2-trifluoroethyl)-1H-indol-2-yl)prop-2-yn-1-yl)amino)-3-methoxy-N-methylbenzamide]	7.57	5.99	4.85		7.40						
CNC(=O)c1cc(NCC#Cc2sc3c(NC4CCN(C)CC4F)cccc3c2CC(F)(F)F)c(OC)cc1P(C)(C)=O (racemic) [Example 109, 2-dimethylphosphoryl-5-[3-[7-[((Z)-3-fluoro-1-methyl-4-piperidyl)amino]-3-(2,2,2-trifluoroethyl)benzothiophen-2-yl]prop-2-ynylamino]-4-methoxy-N-methyl-benzamide]	7.48	5.92	4.32	6.92							
COc1cc(P(C)(C)=O)ccc1NCC#Cc1sc2c(N[C@@H]3CCN(C4CCCC4)C[C@@H]3F)cccc2c1CC(F)(F)F (relative stereo) [Example 104, (4-((3-(7-(((Z)-1-cyclopentyl-3-fluoropiperidin-4-yl)amino)-3-(2,2,2-trifluoroethyl)benzo[b]thiophen-2-yl)prop-2-yn-1-yl)amino)-3-methoxyphenyl)dimethylphosphine oxide]	7.09	5.86	5.76	6.62							
